Laboratory results: patent publication US20230173018A1, “CASPOFUNGIN DERIVATIVES AND ASSAYS FOR EVALUATING ANTIFUNGAL TREATMENT EFFICACY” (priority 2020, published 2023)
≈ marks a conversion by molar mass, not a printed value. Like-named read-outs stand apart in the source and are kept apart here.

Key:
Type in all cases: cell-based
C. glabrata ATCC 66032 = assay: MIC, broth double dilution; conditions: strain no. 40, C. glabrata ATCC 66032
Excerpt: (§1) The antifungal activities of compounds 1a, 1 and 2 (collectively: caspofungin derivatives) were compared to that of caspofungin and CSF-BOD using a panel of 49 C. albicans and C. glabrata strains (Tables 1 and 2). The panel included ATCC strains and clinical isolates as well a collection of caspofungin-responsive strains and their corresponding isogenic caspofungin-resistant derivatives, constructed by introducing point mutations within and near the defined hotspots in the FKS1 and/or FKS2 genes of the GS complex. Minimal inhibitory concentration (MIC) values for all strains were determined using the broth double dilution method and are summarized in FIG. 2 and Table 2. […] The clinical breakpoints (threshold) for caspofungin-resistance in C. albicans and C. glabrata are 1 μg/mL and 0.5 μg/mL, respectively.

C. glabrata T-192 (1775) = assay: MIC, broth double dilution
Excerpt: as §1

C. glabrata BG2 = assay: MIC, broth double dilution; conditions: strain no. 34, C. glabrata BG2
Excerpt: as §1

[1] = test system: C. glabrata T-983 (11-079); assay: MIC, broth double dilution
Excerpt: as §1

[2] = test system: C. glabrata T-191 (11-331); assay: MIC, broth double dilution
Excerpt: as §1

C. glabrata ATCC 15126 = assay: MIC, broth double dilution
Excerpt: as §1

[3] = test system: C. albicans T-2074 (DP-122); assay: microbe, parasite or virus in culture
Excerpt: as §1

C. glabrata TGL00264 = assay: microbe, parasite or virus in culture
Excerpt: as §1

C. glabrata TGL00275 = assay: microbe, parasite or virus in culture
Excerpt: as §1

C. glabrata CST78 = assay: microbe, parasite or virus in culture; conditions: strain no. 26, C. glabrata CST78
Excerpt: as §1

C. glabrata TGL00253 = assay: microbe, parasite or virus in culture
Excerpt: as §1

C. glabrata TGL00294 = assay: microbe, parasite or virus in culture
Excerpt: as §1

[4] = test system: C. albicans DPL1016 (DP-A15-10); assay: microbe, parasite or virus in culture
Excerpt: as §1

C. glabrata TGL00293 = assay: microbe, parasite or virus in culture
Excerpt: as §1

C. glabrata TGL00277 = assay: microbe, parasite or virus in culture
Excerpt: as §1

C. glabrata TGL00256 = assay: microbe, parasite or virus in culture
Excerpt: as §1

[5] = test system: C. albicans T-2069 (DP-85); assay: microbe, parasite or virus in culture
Excerpt: as §1

C. glabrata TGL00107 = assay: microbe, parasite or virus in culture
Excerpt: as §1

C. glabrata TGL00265 = assay: microbe, parasite or virus in culture
Excerpt: as §1

[6] = test system: C. glabrata T-985 (11-076); assay: microbe, parasite or virus in culture; conditions: strain no. 49, T-985 (11-076), clinical isolate
Excerpt: as §1

C. glabrata TGL00091 = assay: microbe, parasite or virus in culture
Excerpt: as §1

C. glabrata DPL1086 = assay: microbe, parasite or virus in culture
Excerpt: as §1

C. glabrata TGL00056 = assay: microbe, parasite or virus in culture
Excerpt: as §1

[7] = test system: C. albicans T-2077 (DP-205); assay: microbe, parasite or virus in culture
Excerpt: as §1

C. glabrata TGL00291 = assay: microbe, parasite or virus in culture
Excerpt: as §1

C. glabrata TGL00263 = assay: microbe, parasite or virus in culture
Excerpt: as §1

[8] = test system: C. albicans DPL1015 (DP-A15); assay: microbe, parasite or virus in culture
Excerpt: as §1

C. glabrata TGL00065 = assay: microbe, parasite or virus in culture
Excerpt: as §1

C. glabrata TGL00258 = assay: microbe, parasite or virus in culture
Excerpt: as §1

[9] = test system: C. albicans T-2068 (DP-C42); assay: microbe, parasite or virus in culture
Excerpt: as §1

C. albicans CG72 = assay: microbe, parasite or virus in culture; conditions: strain no. 7, CG72, parental CAM, pKE1:GFP-YPT72
Excerpt: as §1

[10] = test system: C. albicans T-2076 (DP-194); assay: microbe, parasite or virus in culture
Excerpt: as §1

C. albicans SN95 = assay: microbe, parasite or virus in culture; conditions: strain no. 8, SN95, parental RM1000
Excerpt: as §1

C. glabrata TGL00054 = assay: microbe, parasite or virus in culture
Excerpt: as §1

[11] = Nakaseomyces glabratus, read-out: MIC
[12] = Candida albicans, read-out: MIC

## CC[C@H](C)C[C@H](C)CCCCCCCCC(=O)N[C@H]1C[C@@H](O)[C@@H](NCCN)NC(=O)[C@@H]2[C@@H](O)CCN2C(=O)[C@H]([C@H](O)CCN)NC(=O)[C@H]([C@H](O)[C@@H](O)c2ccc(OCc3cn(CCCNc4ccc([N+](=O)[O-])c5nonc45)nn3)cc2)NC(=O)[C@@H]2C[C@@H](O)CN2C(=O)[C@H]([C@@H](C)O)NC1=O [Compound 2]
C. glabrata ATCC 66032
  MIC: 2 µg/mL (≈ 1.43 µM)
C. glabrata T-192 (1775); strain no. 44, T-192 (1775), clinical isolate
  MIC: 2 µg/mL (≈ 1.43 µM)
C. glabrata BG2
  MIC: 4 µg/mL (≈ 2.87 µM)
[1]; strain no. 47, T-983 (11-079), clinical isolate
  MIC: 2 µg/mL (≈ 1.43 µM)
[2]; strain no. 43, T-191 (11-331), clinical isolate
  MIC: 2 µg/mL (≈ 1.43 µM)
C. glabrata ATCC 15126; strain no. 41, C. glabrata ATCC 15126
  MIC: 4 µg/mL (≈ 2.87 µM)
[3]; strain no. 12, T-2074 (DP-122), clinical isolate, FKS1 HS1-P649H mutation
  MIC: 64 µg/mL (≈ 45.9 µM)
C. glabrata TGL00264; strain no. 29, TGL00264, parental CST78, FKS mutant
  MIC: >64 µg/mL
C. glabrata TGL00275; strain no. 32, TGL00275, FKS mutant
  MIC: >64 µg/mL
C. glabrata CST78
  MIC: 4 µg/mL (≈ 2.87 µM)
C. glabrata TGL00253; strain no. 20, TGL00253, parental CST109, FKS2 mutant
  MIC: >64 µg/mL
C. glabrata TGL00294; strain no. 38, TGL00294, parental BG2, FKS mutant
  MIC: >64 µg/mL
[4]; strain no. 3, DPL1016 (DP-A15-10), parental SC5314, FKS1 mutant HS1-S645P
  MIC: >64 µg/mL
C. glabrata TGL00293; strain no. 37, TGL00293, parental BG2, FKS mutant
  MIC: >64 µg/mL
C. glabrata TGL00277; strain no. 33, TGL00277, parental EF1620, FKS mutant
  MIC: >64 µg/mL
C. glabrata TGL00256; strain no. 24, TGL00256, parental CST34, FKS mutant
  MIC: 64 µg/mL (≈ 45.9 µM)
[5]; strain no. 14, T-2069 (DP-85), clinical isolate, FKS1 HS1-S645F mutation
  MIC: >64 µg/mL
C. glabrata TGL00107; strain no. 23, TGL00107, parental CST34, FKS mutant
  MIC: >64 µg/mL
C. glabrata TGL00265; strain no. 30, TGL00265, parental CST78, FKS mutant
  MIC: >64 µg/mL
[6]
  MIC: 4 µg/mL (≈ 2.87 µM)
C. glabrata TGL00091; strain no. 35, TGL00091, FKS mutant
  MIC: >64 µg/mL
C. glabrata DPL1086; strain no. 17, DPL1086, parental ATCC 90030, FKS1 mutant HS1-S629P
  MIC: 32 µg/mL (≈ 22.9 µM)
C. glabrata TGL00056; strain no. 22, TGL00056, parental CST34, FKS mutant
  MIC: >64 µg/mL
[7]; strain no. 15, T-2077 (DP-205), clinical isolate, FKS1 HS1-S645P mutation
  MIC: >64 µg/mL
C. glabrata TGL00291; strain no. 36, TGL00291, parental BG2, FKS mutant
  MIC: >64 µg/mL
C. glabrata TGL00263; strain no. 28, TGL00263, parental CST78, FKS mutant
  MIC: >64 µg/mL
[8]; strain no. 2, DPL1015 (DP-A15), parental SC5314, FKS1 mutant HS1-S645S/P
  MIC: 32 µg/mL (≈ 22.9 µM)
C. glabrata TGL00065; strain no. 27, TGL00065, FKS mutant
  MIC: >64 µg/mL
C. glabrata TGL00258; strain no. 25, TGL00258, parental CST34, FKS mutant
  MIC: >64 µg/mL
[9]; strain no. 4, T-2068 (DP-C42), parental SC5314, FKS1 HS1-F641S mutation
  MIC: 64 µg/mL (≈ 45.9 µM)
C. albicans CG72
  MIC: 1 µg/mL (≈ 0.717 µM)
[10]; strain no. 13, T-2076 (DP-194), clinical isolate, FKS1 HS1-S645F, HS2-R1361R/H mutation
  MIC: >64 µg/mL
C. albicans SN95
  MIC: 2 µg/mL (≈ 1.43 µM)
C. glabrata TGL00054; strain no. 19, TGL00054, parental CST109, FKS2 mutant
  MIC: >64 µg/mL

## CC[C@H](C)C[C@H](C)CCCCCCCCC(=O)N[C@H]1C[C@@H](O)[C@@H](NCCN)NC(=O)[C@@H]2[C@@H](O)CCN2C(=O)[C@H]([C@H](O)CCN)NC(=O)[C@H]([C@H](O)[C@@H](O)c2ccc(O)cc2)NC(=O)[C@@H]2C[C@@H](O)CN2C(=O)[C@H]([C@@H](C)O)NC1=O [Caspofungin]
C. glabrata ATCC 66032; Nakaseomyces glabratus, ATCC66032, read-out: MIC
  MIC: 0.125 µg/mL (≈ 0.114 µM)
C. glabrata T-192 (1775); Nakaseomyces glabratus
  MIC: 0.063 µg/mL (≈ 0.0576 µM)
C. glabrata BG2; [11]
  MIC: 0.125 µg/mL (≈ 0.114 µM)
[1]; Nakaseomyces glabratus
  MIC: 0.063 µg/mL (≈ 0.0576 µM)
[2]; Nakaseomyces glabratus
  MIC: 0.063 µg/mL (≈ 0.0576 µM)
C. glabrata ATCC 15126; Nakaseomyces glabratus, ATCC15126
  MIC: 0.125 µg/mL (≈ 0.114 µM)
[3]; Candida albicans
  MIC: 1 µg/mL (≈ 0.915 µM)
C. glabrata TGL00264; Nakaseomyces glabratus, TGL00264
  MIC: 2 µg/mL (≈ 1.83 µM)
C. glabrata TGL00275; Nakaseomyces glabratus, TGL00275
  MIC: 8 µg/mL (≈ 7.32 µM)
C. glabrata CST78; [11]
  MIC: 0.125 µg/mL (≈ 0.114 µM)
C. glabrata TGL00253; Nakaseomyces glabratus, TGL00253
  MIC: > 64 µg/mL
C. glabrata TGL00294; Nakaseomyces glabratus, TGL00294
  MIC: 16 µg/mL (≈ 14.6 µM)
[4]; Candida albicans, SC5314
  MIC: 16 µg/mL (≈ 14.6 µM)
C. glabrata TGL00293; Nakaseomyces glabratus, TGL00293
  MIC: > 64 µg/mL
C. glabrata TGL00277; Nakaseomyces glabratus, TGL00277
  MIC: > 64 µg/mL
C. glabrata TGL00256; Nakaseomyces glabratus, TGL00256
  MIC: 1 µg/mL (≈ 0.915 µM)
[5]; Candida albicans
  MIC: 16 µg/mL (≈ 14.6 µM)
C. glabrata TGL00107; Nakaseomyces glabratus, TGL00107
  MIC: > 64 µg/mL
C. glabrata TGL00265; Nakaseomyces glabratus, TGL00265
  MIC: > 64 µg/mL
[6]; [11]
  MIC: 0.125 µg/mL (≈ 0.114 µM)
C. glabrata TGL00091; Nakaseomyces glabratus, TGL00091
  MIC: > 64 µg/mL
C. glabrata DPL1086; Nakaseomyces glabratus, ATCC90030
  MIC: 2 µg/mL (≈ 1.83 µM)
C. glabrata TGL00056; Nakaseomyces glabratus, TGL00056
  MIC: > 64 µg/mL
[7]; Candida albicans
  MIC: > 64 µg/mL
C. glabrata TGL00291; Nakaseomyces glabratus, TGL00291
  MIC: > 64 µg/mL
C. glabrata TGL00263; Nakaseomyces glabratus, TGL00263
  MIC: 8 µg/mL (≈ 7.32 µM)
[8]; Candida albicans, SC5314
  MIC: 4 µg/mL (≈ 3.66 µM)
C. glabrata TGL00065; Nakaseomyces glabratus, TGL00065
  MIC: > 64 µg/mL
C. glabrata TGL00258; Nakaseomyces glabratus, TGL00258
  MIC: > 64 µg/mL
[9]; Candida albicans, SC5314
  MIC: 16 µg/mL (≈ 14.6 µM)
C. albicans CG72; [12]
  MIC: 0.031 µg/mL (≈ 0.0284 µM)
[10]; Candida albicans
  MIC: 2 µg/mL (≈ 1.83 µM)
C. albicans SN95; [12]
  MIC: 0.063 µg/mL (≈ 0.0576 µM)
C. glabrata TGL00054; Nakaseomyces glabratus, TGL00054
  MIC: > 64 µg/mL
